Source: the supplement of paper PMC10307832

Legend:
Experiment in all cases: relative viability (nuclei count vs DMSO), 5 days (fraction); higher = more cells survive
AZD5582 + Pictilisib = compound: C[C@@H](C(=O)N[C@@H](C1CCCCC1)C(=O)N2CCC[C@H]2C(=O)N[C@@H]3[C@@H](CC4=CC=CC=C34)OCC#CC#CCO[C@@H]5CC6=CC=CC=C6[C@@H]5NC(=O)[C@@H]7CCCN7C(=O)[C@H](C8CCCCC8)NC(=O)[C@H](C)NC)NC [AZD5582] + CS(=O)(=O)N1CCN(Cc2cc3nc(-c4cccc5[nH]ncc45)nc(N4CCOCC4)c3s2)CC1 [Pictilisib] (partner 1 µM)
In short: (§1)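 The day after seeding in 1536-well plates, lung cancer cell lines were treated by pin tool with a single drug, or with a fixed anchor-drug dose together with five library-drug doses (not always all listed) in √10 steps. After 5 days, a combined fix-and-stain solution (final 0.05% Triton X-100, 1% formaldehyde, 1 ug/ml Hoechst) was added. Nuclei counted on 4× images gave relative viability as treated counts over vehicle counts, reported as the median of duplicate plates.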

AZD5582 + Foretinib = compound: C[C@@H](C(=O)N[C@@H](C1CCCCC1)C(=O)N2CCC[C@H]2C(=O)N[C@@H]3[C@@H](CC4=CC=CC=C34)OCC#CC#CCO[C@@H]5CC6=CC=CC=C6[C@@H]5NC(=O)[C@@H]7CCCN7C(=O)[C@H](C8CCCCC8)NC(=O)[C@H](C)NC)NC [AZD5582] + COc1cc2c(Oc3ccc(NC(=O)C4(C(=O)Nc5ccc(F)cc5)CC4)cc3F)ccnc2cc1OCCCN1CCOCC1 [Foretinib] (partner 0.25 µM)
In short: as §1

Temozolomide + Lapatinib = compound: Cn1nnc2c(C(N)=O)ncn2c1=O [Temozolomide] + CS(=O)(=O)CCNCc1ccc(-c2ccc3ncnc(Nc4ccc(OCc5cccc(F)c5)c(Cl)c4)c3c2)o1 [Lapatinib] (partner 2 µM)
In short: as §1

[1] = compound: Cn1nnc2c(C(N)=O)ncn2c1=O [Temozolomide] + C[C@@H](Oc1cc(-c2cnn(C3CCNCC3)c2)cnc1N)c1c(Cl)ccc(F)c1Cl [Crizotinib] (partner 1 µM)
In short: as §1

AZD5582 + AZD7762 = compound: C[C@@H](C(=O)N[C@@H](C1CCCCC1)C(=O)N2CCC[C@H]2C(=O)N[C@@H]3[C@@H](CC4=CC=CC=C34)OCC#CC#CCO[C@@H]5CC6=CC=CC=C6[C@@H]5NC(=O)[C@@H]7CCCN7C(=O)[C@H](C8CCCCC8)NC(=O)[C@H](C)NC)NC [AZD5582] + NC(=O)Nc1cc(-c2cccc(F)c2)sc1C(=O)N[C@H]1CCCNC1 [AZD7762] (partner 0.2 µM); conditions: first compound 0.05 µM
In short: as §1

## NCI-H1703
AZD5582 + Pictilisib; first compound 0.005 µM
  relative viability: 0.255
AZD5582 + Pictilisib; first compound 0.01581 µM
  relative viability: 0.291
AZD5582 + Pictilisib; first compound 0.05 µM
  relative viability: 0.251
AZD5582 + Foretinib; first compound 0.005 µM
  relative viability: 0.412
AZD5582 + Foretinib; first compound 0.01581 µM
  relative viability: 0.376
AZD5582 + Foretinib; first compound 0.05 µM
  relative viability: 0.372
Temozolomide + Lapatinib; first compound 0.2 µM
  relative viability: 1.39
Temozolomide + Lapatinib; first compound 0.6325 µM
  relative viability: 1.08
Temozolomide + Lapatinib; first compound 2 µM
  relative viability: 1.59
Temozolomide + Lapatinib; first compound 6.325 µM
  relative viability: 0.972
Temozolomide + Lapatinib; first compound 20 µM
  relative viability: 1.21
[1]; first compound 0.2 µM
  relative viability: 0.746
[1]; first compound 0.6325 µM
  relative viability: 0.648
[1]; first compound 2 µM
  relative viability: 0.876
[1]; first compound 6.325 µM
  relative viability: 0.8
[1]; first compound 20 µM
  relative viability: 0.846
AZD5582 + AZD7762
  relative viability: 0.126
